According to ChEMBL document CHEMBL1201862, “PubChem BioAssay data set” (2004):
Calls of active or inactive are those of the source.

What was measured:
[1] = target: Glycogen synthase kinase-3 alpha (Homo sapiens, UniProt P49840); experiment: GSK3A enzyme blockers, homolog specificity check – biochemical, microfluidics, dry powder samples, set 2, selectivity assay for GSK3beta inhibitor project, dose response (AID 623978); assay type: functional
[2] = viability loss in HeLa cells – cytotoxicity control for MgcRacGAP inhibitor project, dose response (AID 624300); assay type: functional
[3] = viability loss of HMLE_sh_eGFP cells – cell-based, luminescence, counter-screen for HMLE_sh_ECad selective toxicity project, dose response (AID 463074); assay type: functional, Homo sapiens;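 note: HMLE human mammary epithelial cells expressing control shRNA against eGFP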
[4] = target: Glycogen synthase kinase-3 beta (Homo sapiens, UniProt P49841); experiment: inhibition of human GSK3B activity – biochemical, microfluidics, dry powder samples, set 2, dose response (AID 623989); assay type: functional
[5] = target: Dual specificity tyrosine-phosphorylation-regulated kinase 1A (Rattus norvegicus, UniProt Q63470); assay type: biochemical, Homo sapiens
[6] = target: Cyclin-dependent kinase 5/CDK5 activator 1 (Homo sapiens, UniProt Q00535); experiment: inhibitors of human CDK5 activity – biochemical, microfluidic mobility shift, dry powder, set 2, selectivity assay for GSK3beta inhibitor project, dose response (AID 623979); assay type: functional
[7] = target: T1, Rac GTPase-activating protein 1 (Homo sapiens, UniProt Q9H0H5); experiment: blockers of MgcRacGAP-driven Rac1 GTP hydrolysis – biochemical, ADP Hunter fluorescence, primary and confirmatory, confirmation (AID 624330); assay type: functional
T1 sequence (Q9H0H5 whole entry): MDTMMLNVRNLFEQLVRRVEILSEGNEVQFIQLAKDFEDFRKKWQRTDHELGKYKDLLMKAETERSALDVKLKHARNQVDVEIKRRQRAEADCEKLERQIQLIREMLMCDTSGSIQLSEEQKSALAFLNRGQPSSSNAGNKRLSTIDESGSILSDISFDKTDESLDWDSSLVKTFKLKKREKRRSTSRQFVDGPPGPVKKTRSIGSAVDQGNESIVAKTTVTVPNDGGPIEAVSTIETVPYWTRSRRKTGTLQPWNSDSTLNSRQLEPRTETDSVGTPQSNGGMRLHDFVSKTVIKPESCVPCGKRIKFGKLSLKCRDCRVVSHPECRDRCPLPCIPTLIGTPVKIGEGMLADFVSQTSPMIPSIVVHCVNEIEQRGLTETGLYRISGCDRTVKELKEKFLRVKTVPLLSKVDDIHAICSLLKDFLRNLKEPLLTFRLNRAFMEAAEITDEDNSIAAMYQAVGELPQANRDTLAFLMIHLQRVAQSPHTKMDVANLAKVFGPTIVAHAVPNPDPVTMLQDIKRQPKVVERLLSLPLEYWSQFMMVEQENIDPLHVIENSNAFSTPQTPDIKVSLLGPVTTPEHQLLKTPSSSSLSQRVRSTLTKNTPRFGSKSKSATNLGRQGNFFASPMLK

HeLa = experiment: ATP-based viability loss in HeLa cells – cell-based, CellTiter-Glo luminescence, cherry-pick samples, cytotoxicity control for MITF activator project, dose response (AID 540259); assay type: functional; conditions: Homo sapiens
[8] = target: Dual specificity protein kinase CLK1 (Homo sapiens, UniProt P49759); experiment: inhibition of human CLK1 activity – biochemical, cherry-picked samples, selectivity assay for Dyrk1A inhibitor project, dose response (AID 588811)
[9] = Luminescence Cell-Based Dose Retest to Confirm Inhibitors of Cancer Stem Cells. [Related pubchem assays (depositor defined):AID2717, AID2721]; assay type: functional; conditions: Homo sapiens
[10] = target: Melanin-concentrating hormone receptor 1 (Homo sapiens, UniProt Q99705); experiment: Late-stage fluorescence-based counterscreen for antagonists of the G-protein coupled receptor 7 (GPR7): cell-based dose response assay to identify antagonists of the melanin-concentrating hormone receptor 1 (MCHR1) Set 5.; assay type: functional
[11] = target: T2, Neuropeptides B/W receptor type 1 (Homo sapiens, UniProt P48145); experiment: human NPBW1 receptor blockade, IC50 – cell-based, fluorescence, dose response, set 5, late-stage follow-up (AID 588566); assay type: functional
T2 sequence (P48145 whole entry): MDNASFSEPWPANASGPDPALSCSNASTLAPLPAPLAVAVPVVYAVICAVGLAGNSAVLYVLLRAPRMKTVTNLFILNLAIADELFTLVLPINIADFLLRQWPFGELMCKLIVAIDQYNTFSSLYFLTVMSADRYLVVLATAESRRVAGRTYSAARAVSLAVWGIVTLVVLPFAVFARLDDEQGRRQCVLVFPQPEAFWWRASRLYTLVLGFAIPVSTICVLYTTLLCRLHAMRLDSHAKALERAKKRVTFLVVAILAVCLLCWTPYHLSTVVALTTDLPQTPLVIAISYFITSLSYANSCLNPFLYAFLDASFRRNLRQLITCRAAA

Sequence of Glycogen synthase kinase-3 alpha (P49840 whole entry): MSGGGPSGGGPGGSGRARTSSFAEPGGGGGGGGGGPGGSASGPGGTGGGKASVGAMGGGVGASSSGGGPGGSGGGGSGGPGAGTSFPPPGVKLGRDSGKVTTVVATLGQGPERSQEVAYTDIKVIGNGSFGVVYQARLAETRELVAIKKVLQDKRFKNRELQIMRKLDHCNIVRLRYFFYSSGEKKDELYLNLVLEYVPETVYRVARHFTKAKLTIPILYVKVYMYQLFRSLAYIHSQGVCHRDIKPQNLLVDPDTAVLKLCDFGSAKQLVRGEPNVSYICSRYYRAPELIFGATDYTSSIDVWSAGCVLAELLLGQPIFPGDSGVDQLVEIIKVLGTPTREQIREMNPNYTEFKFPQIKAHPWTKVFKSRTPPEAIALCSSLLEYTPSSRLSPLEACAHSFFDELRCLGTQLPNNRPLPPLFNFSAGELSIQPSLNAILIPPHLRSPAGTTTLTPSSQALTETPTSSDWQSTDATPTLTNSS
Sequence of Glycogen synthase kinase-3 beta (P49841 whole entry): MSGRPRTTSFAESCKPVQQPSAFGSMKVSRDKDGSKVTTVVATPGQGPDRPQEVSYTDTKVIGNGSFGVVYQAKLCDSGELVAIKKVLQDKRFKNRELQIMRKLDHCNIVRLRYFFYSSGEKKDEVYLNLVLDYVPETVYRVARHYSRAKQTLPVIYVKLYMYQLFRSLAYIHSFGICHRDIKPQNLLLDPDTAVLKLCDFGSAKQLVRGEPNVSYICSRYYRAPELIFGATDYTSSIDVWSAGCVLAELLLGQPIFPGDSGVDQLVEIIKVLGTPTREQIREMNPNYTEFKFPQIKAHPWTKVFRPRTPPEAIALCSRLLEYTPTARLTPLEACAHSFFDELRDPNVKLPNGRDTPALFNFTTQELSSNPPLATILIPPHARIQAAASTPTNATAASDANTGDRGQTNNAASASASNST
Sequence of Melanin-concentrating hormone receptor 1 (Q99705 whole entry): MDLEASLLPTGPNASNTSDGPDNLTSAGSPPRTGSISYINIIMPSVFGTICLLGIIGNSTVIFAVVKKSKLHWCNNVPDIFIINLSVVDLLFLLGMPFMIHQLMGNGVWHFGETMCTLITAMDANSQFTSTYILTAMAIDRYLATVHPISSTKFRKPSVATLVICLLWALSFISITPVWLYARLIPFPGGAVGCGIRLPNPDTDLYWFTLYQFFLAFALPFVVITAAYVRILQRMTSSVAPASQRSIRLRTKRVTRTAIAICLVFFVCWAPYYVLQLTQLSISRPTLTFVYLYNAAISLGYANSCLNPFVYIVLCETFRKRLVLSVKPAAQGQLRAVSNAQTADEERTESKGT
Sequence of Dual specificity protein kinase CLK1 (P49759 whole entry): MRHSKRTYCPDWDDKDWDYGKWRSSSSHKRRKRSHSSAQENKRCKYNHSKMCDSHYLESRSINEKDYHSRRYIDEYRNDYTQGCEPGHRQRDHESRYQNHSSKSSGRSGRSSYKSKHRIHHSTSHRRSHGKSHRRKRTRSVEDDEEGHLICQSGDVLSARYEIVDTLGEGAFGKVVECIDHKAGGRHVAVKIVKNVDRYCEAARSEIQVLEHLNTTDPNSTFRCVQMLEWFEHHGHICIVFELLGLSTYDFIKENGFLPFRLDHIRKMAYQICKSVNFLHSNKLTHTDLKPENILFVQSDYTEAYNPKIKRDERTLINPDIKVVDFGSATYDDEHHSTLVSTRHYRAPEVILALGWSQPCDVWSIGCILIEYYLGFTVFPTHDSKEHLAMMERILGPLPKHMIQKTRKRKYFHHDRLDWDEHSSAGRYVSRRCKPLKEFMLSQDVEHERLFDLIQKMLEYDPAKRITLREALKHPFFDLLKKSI
Sequence of Cyclin-dependent kinase 5/CDK5 activator 1 (Q00535 whole entry): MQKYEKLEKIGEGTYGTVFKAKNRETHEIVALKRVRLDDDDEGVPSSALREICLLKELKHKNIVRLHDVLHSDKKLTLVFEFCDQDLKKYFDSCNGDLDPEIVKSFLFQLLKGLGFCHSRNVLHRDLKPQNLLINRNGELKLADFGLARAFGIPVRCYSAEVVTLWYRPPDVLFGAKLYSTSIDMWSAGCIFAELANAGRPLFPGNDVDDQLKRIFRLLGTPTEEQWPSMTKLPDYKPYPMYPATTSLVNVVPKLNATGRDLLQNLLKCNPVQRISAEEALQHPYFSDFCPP
Sequence of Cyclin-dependent kinase 5/CDK5 activator 1 (Q15078 whole entry, further chain): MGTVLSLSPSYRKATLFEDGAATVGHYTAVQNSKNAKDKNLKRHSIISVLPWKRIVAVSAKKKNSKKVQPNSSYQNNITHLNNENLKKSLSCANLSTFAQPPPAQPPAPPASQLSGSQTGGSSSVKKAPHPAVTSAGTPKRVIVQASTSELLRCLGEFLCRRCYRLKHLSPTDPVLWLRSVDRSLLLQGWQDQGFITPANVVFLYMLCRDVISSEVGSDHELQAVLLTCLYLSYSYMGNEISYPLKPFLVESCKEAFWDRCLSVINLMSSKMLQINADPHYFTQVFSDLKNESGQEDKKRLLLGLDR

COc1cccc(Nc2nc(-c3ccc(O)cc3)cs2)c1
active: AC50 [1] 8.21 µM | CC50 [2] 100 µM | AC50 [3] 34.7 µM | AC50 [4] 2.8 µM | AC50 [5] 10.2 µM | AC50 [6] 33 µM | IC50 [7] 66.1 µM | AC50 (HeLa) 54.8 µM | AC50 [8] 7.47 µM | AC50 [9] 19.6 µM

COc1ccc(Oc2c(Cl)cnn(CC(=O)c3ccc(Cl)cc3Cl)c2=O)cc1
active: IC50 [10] 5.47 µM | IC50 [11] 1.85 µM
